Test [1] concerns TNF-α production in human PBMCs. The test can be described thus: Induction of TNF-α in human PBMCs (ELISA). In kind it is cell-based. Particulars: PBMC, 24 h, read-out: PBMC assay TNFa EC50. The procedure:
In this example, the induction activity of the compounds of the present application on human PBMCs for TNF-α and IFN-α production was assessed in human PBMCs (human peripheral blood mononuclear cells). The human PBMCs were purchased from Shanghai Saily Biotechnology Co., Ltd. (Cat. No. XFB—HP100B). PBMC cells were treated with the compounds. The compounds of the present application are diluted in DMSO, for example, to about 15 mM. The reference compound was added to the plates in sequence after diluted to 5 mg/mL. The compounds were serially 3- or 4-fold diluted to 8 concentrations and added to plates in duplicate (Table 2-1 for serial 3-fold dilutions and Table 2-2 for serial 4-fold dilutions). For the negative control wells, DMSO was added at 0.4 μL/well, and a 5 mg/mL reference compound solution was added to the positive control wells at 0.4 μL/well. The final concentration of DMSO was 0.2%. Frozen human PBMCs in cryopreservation tubes were quickly thawed in a 37° C. water bath and transferred into 50-mL centrifuge tubes. Prewarmed RPMI1640 medium was gradually added and the mixture was well mixed and centrifuged for 15 min before the supernatant was discarded. The cells were resuspended in a culture medium and counted. The cell suspension was adjusted to 2.5×10^6 cells/mL with the culture medium. Diluted cells were added at 200 μL/500,000 cells/well in 96-well plates containing the compounds. The cell plates were incubated at 37° C./5% CO2 for 24 h.
The plate was then washed thrice. […] Termination of reaction: The reaction was terminated by quickly adding the stop solution at 100 μL/well. Plate reading: The reading at wavelength 450 nm was detected by an M2e instrument within 10 min after the termination.
Compound activity data analysis: The OD450 values were converted to TNF-α and IFN-α contents by GraphPad Prism software analysis and fitted to give dose-response curves of the compounds. The EC50 values for the compounds were calculated, where the Emax values are the maximal values for TNF-α and IFN-α.
For orientation: ELISA stands for enzyme-linked immunosorbent assay.

Test [2] concerns the target T1, hTLR8 (human Toll-like receptor 8) (Homo sapiens, UniProt Q9NR97).
T1 construct: host or cells: HEK-Blue hTLR8 (HEK293-derived reporter cells)
T1 sequence (Q9NR97 27-1041): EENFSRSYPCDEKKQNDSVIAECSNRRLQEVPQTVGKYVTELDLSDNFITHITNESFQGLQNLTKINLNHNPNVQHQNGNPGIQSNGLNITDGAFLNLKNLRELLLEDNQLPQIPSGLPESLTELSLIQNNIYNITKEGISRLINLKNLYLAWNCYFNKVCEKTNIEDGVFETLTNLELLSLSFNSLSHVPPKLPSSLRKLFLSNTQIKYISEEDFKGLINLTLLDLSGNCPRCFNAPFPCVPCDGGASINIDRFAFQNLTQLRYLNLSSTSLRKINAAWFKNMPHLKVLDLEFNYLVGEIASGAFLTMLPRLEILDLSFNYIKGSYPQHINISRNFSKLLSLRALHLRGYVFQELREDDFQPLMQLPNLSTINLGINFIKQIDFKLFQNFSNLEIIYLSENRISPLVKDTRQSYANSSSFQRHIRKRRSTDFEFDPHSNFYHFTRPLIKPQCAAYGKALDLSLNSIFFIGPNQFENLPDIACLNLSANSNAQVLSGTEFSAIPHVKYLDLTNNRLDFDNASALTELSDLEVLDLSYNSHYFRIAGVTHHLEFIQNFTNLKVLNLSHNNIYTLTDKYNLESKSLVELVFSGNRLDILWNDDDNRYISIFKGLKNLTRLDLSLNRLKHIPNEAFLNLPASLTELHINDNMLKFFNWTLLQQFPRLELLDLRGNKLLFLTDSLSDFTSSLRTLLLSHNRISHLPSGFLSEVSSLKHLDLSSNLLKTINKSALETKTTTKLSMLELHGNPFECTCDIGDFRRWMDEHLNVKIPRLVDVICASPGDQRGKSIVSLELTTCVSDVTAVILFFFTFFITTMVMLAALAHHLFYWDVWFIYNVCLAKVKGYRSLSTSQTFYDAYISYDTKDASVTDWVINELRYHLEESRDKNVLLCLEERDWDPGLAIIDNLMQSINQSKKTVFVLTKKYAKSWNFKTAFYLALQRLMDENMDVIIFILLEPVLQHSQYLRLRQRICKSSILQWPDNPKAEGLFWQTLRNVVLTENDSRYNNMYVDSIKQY
The test can be described thus: HEK-Blue hTLR8 reporter assay (QUANTI-Blue, OD650). In kind it is cell-based. The following applies: HEK-Blue hTLR8 cells, 24 h, read-out: Reporter assay TLR8 EC50. The method, then:
In this example, the agonistic activity of the compounds of the present application on hTLR7 (human Toll-like receptor 7) and hTLR8 (human Toll-like receptor 8) was assessed; the induction activity of the compounds on human PBMCs for TNF-α and IFN-α production was assessed in human PBMCs (human peripheral blood mononuclear cells).
All compounds were formulated in DMSO into 30 mM stock solutions and preserved at 4° C. The reference compound ([…], Cat. No. tlrl-r848-5) was purchased from InvivoGen and formulated into a 5 mg/mL stock solution in DMSO and preserved in a freezer at −20° C. HEK-Blue hTLR7 and HEK-Blue hTLR8 cell lines were purchased from InvivoGen, and human PBMCs were purchased from Shanghai Saily Biotechnology Co., Ltd. (Cat. No. XFB—HP100B).
The major instruments used in this study were multifunctional microplate reader Flexstation III (Molecular Device), Envision (Perkin Elmer), M2e (Molecular Device), and Echo555 (Labcyte). 2.1 Agonistic activity of compounds on hTLR7 (human Toll-like receptor 7) and hTLR8 (human Toll-like receptor 8)
Compound dilution: The compounds of the present application are diluted in DMSO, for example, to about 15 mM. The reference compound was added to the plates in sequence after dilution. The compounds were serially 3-fold diluted to 10 concentrations and added to 96-well plates in duplicate.
For the negative control wells, DMSO was added at 0.2 μL/well, and the reference compound was added to the positive control wells. The final concentration of DMSO was 0.2%.
Cell plating: When an 80% confluence of HEK Blue hTLR7&8 cells in the culture flask was observed under a microscope, the culture medium was discarded, 10 mL of detection medium was added, and the cells were separated by pipetting. The cells were counted on a cytometer and diluted to 500,000 cells/mL. The cells were plated at 100 μL/50,000 cells/well in the 96-well plates containing the compounds. The compounds and cells were co-incubated at 37° C. in a 5% CO2 incubator for 24 hours.
Compound activity detection: 20 μL of cell supernatant was taken from each well and added to a plate containing QUANTI-Blue™ reagent at 180 μL/well. The plate was incubated at 37° C. for 1 hour, and the absorbance at 650 nm (OD650) was measured on the multifunctional microplate reader Flexstation III.
Compound activity data analysis: The OD650 values were analyzed by GraphPad Prism software and fitted to give dose-response curves of the compounds. The EC50 values of compounds were calculated.
Background: Reporter assays use an easily measured gene product as a stand-in for the process of interest.

The mark [3] stands for this setting: serial 4-fold dilutions, class symbols.

The results in this text go back to patent US20250059141A1, “TLR MODULATOR AND USE THEREOF” (DUALITY BIOLOGICS (SUZHOU) CO., LTD., priority 2021, published 2025).

Usually EC50 stands for the concentration giving half of the maximal effect.

SMILES strings stand for the structures. Where two headings read alike, the source gives them in different places.

As for `CCCN(OCc1ccc(N)cc1)C(=O)C1=Cc2ccc(-c3ccc(C(=O)N4CC[C@@H](O)C4)cc3)cc2N=C(N)C1` [Compound 42], the values for the EC50 in test [1] (serial 3-fold dilutions), in test [1] (setting [3]) and in test [2] (class symbols) were 37 nM, 10 to 50 nM and 10 to 100 nM, respectively.

In the case of `CCCN(OCc1ccc(N)cc1)C(=O)C1=Cc2ccc(C(=O)N[C@@H](C)c3ccccc3)cc2N=C(N)C1` [Compound 77], the EC50 in test [1] (setting [3]) and in test [2] (class symbols) was not above 10 nM each time.

With `CCCN(OCc1ccc(N)cc1)C(=O)C1=Cc2ccc(-c3cncc(S(=O)(=O)N4CCC(O)CC4)c3)cc2N=C(N)C1` [Compound 71], the EC50 in test [1] (setting [3]) and in test [2] (class symbols) was not above 10 nM throughout.

In the case of `CCCN(OCc1ccc(N)cc1)C(=O)C1=Cc2ccc(-c3cncc(N)c3)cc2N=C(N)C1` [Compound 52], the EC50 in test [1] (serial 3-fold dilutions) was found to be 8.61 nM; in test [2] it was 4.4 nM.

Turning to `CCCN(OCc1ccc(N)cc1)C(=O)C1=Cc2ccc(-c3cncc(S(=O)(=O)NCCO)c3)cc2N=C(N)C1` [Compound 70], the EC50 in test [1] (setting [3]) and in test [2] (class symbols) was not above 10 nM each time.

Regarding `CCCN(OCc1ccc(N)cc1)C(=O)C1=Cc2ncc(-c3cncc(CO)c3)cc2N=C(N)C1` [Compound 61], the 50% effective concentration (EC50) in test [1] (setting [3]) and in test [2] (class symbols) was not above 10 nM throughout.

In the case of `CCCN(OCc1ccc(N)cc1)C(=O)C1=Cc2ccc(C(=O)Nc3ccc4c(c3)CNC4)cc2N=C(N)C1` [Compound 90], the EC50 in test [1] (setting [3]) and in test [2] (class symbols) was not above 10 nM in each case.

In the case of `CCCN(OCc1ccc(N)cc1)C(=O)C1=Cc2ccc(-c3ccc(C#N)nc3)cc2N=C(N)C1` [Compound 51], the EC50 in test [1] (serial 3-fold dilutions) was found to be 17.3 nM; in test [2], 5.6 nM.

On to `CCCN(OCc1ccc(N)cc1)C(=O)C1=Cc2ccc(-c3cccc(S(=O)(=O)N4CC(O)C4)c3)cc2N=C(N)C1` [Compound 41], for which the EC50 is 15.3 nM in test [1] (serial 3-fold dilutions), not above 10 nM in test [1] (setting [3]) and 5.37 nM in test [2].

On to `CCCN(OCc1ccc(N)cc1)C(=O)C1=Cc2ccc(C(=O)Nc3cccc(CN)c3)cc2N=C(N)C1` [Compound 86], for which the EC50 in test [1] (setting [3]) and in test [2] (class symbols) was not above 10 nM throughout.

Consider `CCCN(OCc1ccc(N)cc1)C(=O)C1=Cc2ccc(C(=O)N3CCN(c4ccccc4)CC3)cc2N=C(N)C1` [Compound 97], for which the EC50 in test [1] (setting [3]) and in test [2] (class symbols) was not above 10 nM throughout.

For `CCCN(OCc1ccc(N)cc1)C(=O)C1=Cc2ccc(-c3cccc(S(=O)(=O)N4CCOCC4)c3)cc2N=C(N)C1` [Compound 68], the EC50 in test [1] (setting [3]) and in test [2] (class symbols) was not above 10 nM throughout.

Turning to `NC1=Nc2cc(-c3cncc(CO)c3)ccc2C=C(C(=O)N(CCC(F)(F)F)OCc2ccc(N)cc2)C1` [Compound 58], the concentration for a half-maximal effect (EC50) in test [1] (setting [3]) and in test [2] (class symbols) was not above 10 nM in each case.

Consider `CCCN(OCc1ccc(N)cc1)C(=O)C1=Cc2ccc(C(=O)N3CCC(O)C3)cc2N=C(N)C1` (stereo not drawn) [Compound 46], for which the concentration giving a half-maximal response (EC50) is 10 to 50 nM in test [1] (setting [3]) and 10 to 100 nM in test [2] (class symbols).

Consider `CCCN(OCc1ccc(N)cc1)C(=O)C1=Cc2ccc(C(=O)NC3COC3)cc2N=C(N)C1` [Compound 81], for which the 50% effective concentration (EC50) lay within 10 to 50 nM in test [1] (setting [3]) and 10 to 100 nM in test [2] (class symbols).

Consider `CCCN(OCc1ccc(N)cc1)C(=O)C1=Cc2ccc(-c3ccc(N4CCOCC4)nc3)cc2N=C(N)C1` [Compound 55], for which the concentration giving a half-maximal response (EC50) stood at 33.5 nM in test [1] (serial 3-fold dilutions) and 2.3 nM in test [2].

Regarding `CCCN(OCc1ccc(N)cc1)C(=O)C1=Cc2ccc(C(=O)N[C@H]3C[C@@H]3c3ccccc3)cc2N=C(N)C1` [Compound 78], the concentration for a half-maximal effect (EC50) in test [1] (setting [3]) and in test [2] (class symbols) was not above 10 nM throughout.

Take `CCCN(OCc1ccc(N)cc1OC)C(=O)C1=Cc2ncc(-c3cncc(CO)c3)cc2N=C(N)C1` [Compound 60]: the EC50 in test [1] (setting [3]) and in test [2] (class symbols) was not above 10 nM throughout.

Consider `CCCN(OCc1ccc(N)cc1)C(=O)C1=Cc2ccc(-c3cncc(C(F)(F)F)c3)cc2N=C(N)C1` [Compound 53], for which the figures for the EC50 in test [1] (setting [3]) and in test [2] (class symbols) were 10 to 50 nM and 10 to 100 nM, respectively.

For `CCCN(OCc1ccc(N)cc1)C(=O)C1=Cc2ccc(C(=O)NC3CCCCC3)cc2N=C(N)C1` [Compound 82], the concentration for a half-maximal effect (EC50) in test [1] (setting [3]) and in test [2] (class symbols) was not above 10 nM in each case.

With `CCCN(OCc1ccc(N)cc1)C(=O)C1=Cc2ccc(-c3cccc(S(=O)(=O)NCCO)c3)cc2N=C(N)C1` [Compound 64], the EC50 in test [1] (setting [3]) and in test [2] (class symbols) was not above 10 nM in each case.

For the compound `CCCN(OCc1ccc(N)cc1)C(=O)C1=Cc2ccc(-c3cncc(S(C)(=O)=O)c3)cc2N=C(N)C1` [Compound 56], the values for the 50% effective concentration (EC50) in test [1] (serial 3-fold dilutions) and in test [2] were 7.35 nM and less than 1.5 nM, respectively.

For `CCCN(OCc1ccc(N)cc1)C(=O)C1=Cc2ccc(C(=O)N3CC(Oc4ccccc4)C3)cc2N=C(N)C1` [Compound 94], the EC50 in test [1] (setting [3]) and in test [2] (class symbols) was not above 10 nM throughout.

As to `CCCN(OCc1ccc(N)cc1)C(=O)C1=Cc2ccc(-c3cnc4c(c3)C(=O)OC4)nc2N=C(N)C1` [Compound 63], the half-maximal effective concentration (EC50) in test [1] (setting [3]) and in test [2] (class symbols) was not above 10 nM throughout.

As for `CCCN(OCc1ccc(N)cc1)C(=O)C1=Cc2ccc(-c3cccc(S(N)(=O)=O)c3)cc2N=C(N)C1` [Compound 35], the EC50 is 5 nM in test [1] (serial 3-fold dilutions) and less than 1.5 nM in test [2].

Take `CCCN(OCc1ccc(N)cc1)C(=O)C1=Cc2ccc(C(=O)NC(C)(C)c3ccccc3)cc2N=C(N)C1` [Compound 76]: the EC50 in test [1] (setting [3]) and in test [2] (class symbols) was not above 10 nM throughout.
